Here are results for 1 substance from article PMC4735555, “Crystal structure of the N-myristoylated lipopeptide-bound MHC class I complex” (Nature Communications, 2016).

For assay [1], the system named is 2N5.1 (Mamu-B*098 Cys167 to Ser mutant). Description: Presentation of C14nef5 to 2N5.1 by the cysteine to serine (position 167) mutant of Mamu-B*098. The format is cell-based, rhesus macaque. As to conditions: data not shown.
Assay [2] concerns 2N5.1 (plate-coated Mamu-B*098). Description: T-cell assay with plate-coated Mamu-B*098, IFN-γ release by 2N5.1. The format is cell-based, rhesus macaque. The following applies: 10 μg MHC protein, 1 μg lipopeptide loaded overnight 37 °C; 5 × 10^4 T cells per well, 24 h; IFN-γ ELISA. From the text: Single-chain MHC proteins in which β2m was linked via a Gly-Ser linker (GGGGSGGSGSGGGSS) to the ectodomain of either Mamu-B*098 or Mamu-A*02, followed by a biotinylation sequence peptide (LHHILDAQKMVWNHR), were also expressed in E. coli and were purified in a similar manner to the trimer complex of Mamu-B*098, β2m and C14nef5. The β2m-linked Mamu-B*098 protein was refolded without C14nef5, whereas the β2m-linked Mamu-A*02 protein was refolded in the presence of the YY9 peptide (YTSGPGIRY). These recombinant proteins (3 mg) were biotinylated by being incubated for 12 h at 20 °C with 2 μg of BirA enzyme (Sigma-Aldrich, St Louis, MO) in a biotinylation buffer containing 100 mM Tris-HCl pH 8.0, 5 mM MgCl2, 4.5 mM ATP and 4 mM D-biotin, and were purified by size-exclusion chromatography.
Streptavidin-coated 96-well plates (Thermo Scientific, Hudson, NH) were overlaid with 10 μg of the biotinylated β2m-linked Mamu-B*098 and Mamu-A*02 proteins, and lipopeptide Ags (1 μg) were loaded by an overnight incubation at 37 °C. The wells were then washed extensively and T cells (5 × 10^4 per well) were added. After a 24-h incubation at 37 °C, aliquots of the culture supernatants were collected and the amount of IFN-γ released into the medium was measured by a human/monkey IFN-γ enzyme-linked immunosorbent assay kit (Mabtech, Nacka Strand, Sweden).
In general terms: ELISA stands for enzyme-linked immunosorbent assay.

The next assay deals with Mamu-B*098. Put plainly: X-ray crystal structure of the Mamu-B*098:C14nef5 complex. The class given is binding, rhesus macaque. As to conditions: crystal structure at 1.76 Å, Mamu-B*098 with Cys167 mutated to Ser, rhesus β2m; PDB 4ZFZ. The method, then:
Recombinant proteins were prepared as described previously with some modifications. Briefly, DNA constructs encoding the ectodomain of Mamu-B*098 (from Gly1 to Pro276 with the unpaired Cys167 mutated to Ser and a Met-Ala added to the N terminus) and rhesus β2m (from Ile1 to Met99 with a Met-Ala added to the N terminus) were synthesized and cloned into pLM1. The expression plasmids were introduced into the E. coli Rosetta 2 (DE3) pLysS strain (Novagen, Madison, WI) and colonies were inoculated into a Terrific Broth supplemented with 50 μg ml^−1 ampicillin. Isopropyl-β-D-thiogalactoside was added to the culture at a final concentration of 0.5 mM when the OD600 value of the culture reached 0.5. After an additional 6-h culture, bacteria were harvested and lysed in a buffer containing 50 mM Tris-HCl pH 8.0, 1 mM EDTA, 0.1% NaN3, 10 mM dithiothreitol (DTT), 100 mM NaCl, 1% Triton X-100, 1% deoxycholate and 5 mM MgCl2, followed by a treatment with DNase I. After 6 h of stirring, the samples were centrifuged and the pellets were washed twice with a wash buffer containing 50 mM Tris-HCl pH 8.0, 1 mM EDTA, 0.1% NaN3, 1 mM DTT, 100 mM NaCl and 0.5% Triton X-100, and once with a rinse buffer containing 50 mM Tris-HCl pH 8.0, 1 mM EDTA, 0.1% NaN3 and 1 mM DTT. […]

A further assay deals with 2N5.1. As to conditions: cited from earlier work. The text has this: For example, human and simian immunodeficiency viruses (HIV and SIV) borrow host-derived N-myristoyltransferase and its substrate myristoyl-CoA, to couple a 14-carbon saturated fatty acid (myristic acid) to the N-terminal glycine residue of the Nef protein. […] To obtain an insight into its molecular identity, we generated several hundred monoclonal antibodies that recognized rhesus PBMCs and tested their abilities to block the presentation of C14nef5 to 2N5.1. […] The myristoyl group of the lipopeptide adopted a U-shaped configuration and fit perfectly with the extended B pocket. Furthermore, inter- and intramolecular VDW forces established throughout the acyl chain synergistically reinforced its stable binding to the B pocket. These structural f ... || (+ 1 further places)

“C14-Gly-Gly-Ala-Ile-Ser [C14nef5, N-myristoylated 5-mer peptide (C14-Gly-Gly-Ala-Ile-Ser; C14nef5) derived from the SIV Nef protein]”: in assay [1], the “effect of Cys167 to Ser mutation on ability of Mamu-B*098 to present C14nef5 to 2N5.1” value is on record as “affected neither the overall secondary structure nor the ability of Mamu-B*098 to present C14nef5 to 2N5.1”. Besides, the “IFN-γ response of 2N5.1 to plate-coated Mamu-B*098 with lipopeptide Ag” value in assay [2] is reported as “sufficient for stimulating 2N5.1 to produce IFN-γ”. Moreover, the “electron density in the Ag-binding groove of Mamu-B*098” value with Mamu-B*098 is “Continuous electron density corresponding to C14nef5 was observed in the Ag-binding groove”. Further, in the assay with 2N5.1, the “antigenic activity, C14nef5 versus its Ser to Thr mutant” value is given as “virtually identical antigenic activities” and the “recognition by rhesus macaque CD8+ CTL line 2N5.1” value is “specifically recognizes”. In the assay on 2N5.1 (irradiated PBMCs), the “requirement of PBMCs for recognition by 2N5.1” value is on record as “requires the presence of irradiated peripheral blood mononuclear cells (PBMCs)”.
